This is an account of results in US20160000912A1, “COMBINATION THERAPY OF A TYPE II ANTI-CD20 ANTIBODY WITH A PROTEASOME INHIBITOR” (Roche Glycart AG, priority 2007, published 2016).

For experiment [1], the system named is SU-DHL-4 human Non-Hodgkin-Lymphoma (NHL) cells. Briefly: Tumor growth inhibition study in vivo, SU-DHL-4 xenografts. More on the design: species or system SCID beige mice. The following applies: 1 mg/kg i.p. once weekly. As to the method: Type II anti-CD20 antibody B-HH6-B-KV1 GE(=humanized B-Ly1, glycoengineered B-HH6-B-KV1, see WO 2005/044859 and WO 2007/031875) was provided as stock solution (c=9.4 mg/ml) from GlycArt, Schlieren, Switzerland. Antibody buffer included histidine, trehalose and polysorbate 20. Antibody solution was diluted appropriately in PBS from stock for prior injections.
Proteasome inhibitor bortezomib was purchased as clinical formulation from Janssen-Cilag GmbH, Neuss, Germany. Dilution was adjusted from reconstituted stock solution.
SU-DHL-4 human Non-Hodgkin-Lymphoma (NHL) cells (Chang, H., et al., Leuk Lymphoma. 8 (1992) 129-36) were kindly provided from DSMZ, Braunschweig. Tumor cell line was routinely cultured in RPMI medium (PAA, Laboratories, Austria) supplemented with 10% fetal bovine serum (PAA Laboratories, Austria) and 2 mM L-glutamine, at 37° C. in a water-saturated atmosphere at 5% CO2. Passage 5 was used for transplantation. […]
Animals were controlled daily for clinical symptoms and detection of adverse effects. For monitoring throughout the experiment body weight of animals was documented two times weekly and tumor volume was measured by caliper after staging. […]

The target in experiment [2] is T1, CD20 on Raji cells (ATCC-No. CCL-86) (Homo sapiens, UniProt P11836).
T1 construct: generated by direct immunofluorescence using the Burkitt's lymphoma cell line Raji (ATCC-No. CCL-86); host or cells: Raji cells (Burkitt's lymphoma)
T1 sequence (P11836 1-297): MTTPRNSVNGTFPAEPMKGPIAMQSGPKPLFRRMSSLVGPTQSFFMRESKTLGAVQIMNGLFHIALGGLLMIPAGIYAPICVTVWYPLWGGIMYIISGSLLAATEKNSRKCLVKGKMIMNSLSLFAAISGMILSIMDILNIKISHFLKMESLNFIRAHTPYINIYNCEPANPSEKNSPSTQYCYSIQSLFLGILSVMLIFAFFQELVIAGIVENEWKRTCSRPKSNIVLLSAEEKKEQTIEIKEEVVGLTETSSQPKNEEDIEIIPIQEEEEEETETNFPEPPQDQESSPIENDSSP
The experiment is described as follows: Ratio of the binding capacities to CD20 on Raji cells compared to rituximab (direct immunofluorescence, Cy5, FACSArray). The conditions noted are these: Cy5-conjugated antibodies. As to the method: MFI is the mean fluorescent intensity. The “Cy5-labeling ratio” as used herein means the number of Cy5-label molecules per molecule antibody.
Raji cells (ATCC-No. CCL-86) were maintained in culture in RPMI-1640 medium (PanBiotech GmbH, Cat.-No. PO4-18500) containing 10% FCS (Gibco, Cat.-No.10500-064). […] 5*10^5 cells per sample were stained for 30 min at 4° C. Afterwards, cells were washed in culture medium. Propidium iodide (PI) staining was used to exclude dead cells.
Then the ratio of the binding capacities to CD20 on Raji cells (ATCC-No. CCL-86) is calculated according to the following formula: […]

Take `CC(C)C[C@H](NC(=O)[C@H](Cc1ccccc1)NC(=O)c1cnccn1)B(O)O` [bortezomib]: the “antitumor activity as single agent (in words)” value in experiment [1] is recorded as “only slightly active”.

With “B-HH6-B-KV1: Type II anti-CD20 antibody (humanized B-Ly1 antibody) of Example 2; FIG. 2 legend calls it B-HH6-B-KV1 GE”, the “binding capacity compared to rituximab (in words)” value in experiment [2] is recorded as “reduces binding capacity compared to rituximab”.
